Values joined by “and” are separate entries in the source; they are usually repeats but may differ in a detail not shown here. Equal entries are not always repeated. Structures can show the parent of a compound that is named as a salt. Where two headings read alike, the source gives them in different places.
How the values were obtained:
[1] = tested on: CYP1A2 enzyme; conditions: preliminary study; cited from earlier work
[2] = tested on: relapsed or refractory non-Hodgkin's lymphoma; assay: Phase I study, antitumor activity (response, PFS); assay type: in vivo, human
Method: This was a phase I open label, dose-escalation study whose primary objective was to characterize the safety of XC-302 in adult Chinese patients with advanced lymphoma administered on a 28-day cycle. Others were to determine the pharmacokinetics (PK) characteristics and anti-tumor activity. The anti-tumor effects of XC-302 were evaluated every 2 cycles with the Standardized Response Criteria of the National Cancer Institute International Working Group (IWG). Efficacy evaluation for CLL was on account of IWCLL criteria while for NHL, it was analyzed by IWG response criteria. Patients with stable disease or partial remission were allowed to continue therapy until progressive disease or toxicity was observed.

[3] = tested on: PI3K p110α; conditions: read-out: IC50 against PI3K isoform p110α; ref unpublished information, personal communication with Wei Mao on January 1, 2013; cited from earlier work
[4] = tested on: vascular endothelial cells lumen; parameters: method as in earlier work; conditions: ref unpublished information, personal communication with Wei Mao on January 1, 2013; read-out: IC50, formation of the vascular endothelial cells lumen; cited from earlier work
[5] = tested on: PI3K p110γ; parameters: method as in earlier work; conditions: ref unpublished information, personal communication with Wei Mao on January 1, 2013; read-out: IC50 against PI3K isoform p110γ; cited from earlier work
[6] = tested on: PI3K p110δ; conditions: read-out: IC50 against PI3K isoform p110δ; ref unpublished information, personal communication with Wei Mao on January 1, 2013; cited from earlier work
[7] = tested on: advanced solid tumors; conditions: ref unpublished information, personal communication with Wei Mao on January 1, 2013, cited from earlier work; for Maximum tolerated dose (MTD): single agent, postprandial
[8] = tested on: AKT phosphorylation mediated by EGFR; parameters: method as in earlier work; conditions: ref unpublished information, personal communication with Wei Mao on January 1, 2013; cited from earlier work
[9] = parameters: method as in earlier work; conditions: pre-clinical; ref unpublished information, personal communication with Wei Mao on January 1, 2013; cited from earlier work
[10] = parameters: method as in earlier work; conditions: toxicology experiments; ref unpublished information, personal communication with Wei Mao on January 1, 2013; cited from earlier work

In the case of c1cnc2ccc(Nc3nc(NC4CC4)c4nc[nH]c4n3)cc2c1 [XC-302, Puquitinib Mesylate], the “Inhibition of CYP1A2 enzyme activity” value [1] is listed as “irreversibly inhibited”, the Complete response ([2]; 25 mg BID, n = 3) is listed as 0 n and the Minor response ([2]; 25 mg BID, n = 3) is listed as 0 n. The Partial response ([2]; 25 mg BID, n = 3) was 0 n, the Progressive disease ([2]; 25 mg BID, n = 3) was 0 n and the Stable disease ([2]; 25 mg BID, n = 3) was 3 n. For the same compound, the Complete response ([2]; 37.5 mg BID, n = 9) was 0 n, the Minor response ([2]; 37.5 mg BID, n = 9) was 0 n and the Partial response ([2]; 37.5 mg BID, n = 9) was 0 n. For the same compound, the Progressive disease ([2]; 37.5 mg BID, n = 9) was 8 n, the Stable disease ([2]; 37.5 mg BID, n = 9) was 1 n and the Complete response ([2]; 50 mg BID (n = 7)) was 0 n. It also gave a Minor response ([2]; 50 mg BID (n = 7)) of 1 n, an Overall response rate ([2]; 50 mg BID (n = 7)) of 2 n and a Partial response ([2]; 50 mg BID (n = 7)) of 1 n. The Progressive disease ([2]; 50 mg BID (n = 7)) was 3 n, the Stable disease ([2]; 50 mg BID (n = 7)) was 2 n and the Complete response ([2]; All (n = 21; 19 evaluable)) was 0 n. For the same compound, the Minor response ([2]; All (n = 21; 19 evaluable)) was 1 n, the Overall response rate ([2]; All (n = 21; 19 evaluable)) was 2 n and the Partial response ([2]; All (n = 21; 19 evaluable)) was 1 n. For the same compound, the Progressive disease ([2]; All (n = 21; 19 evaluable)) was 11 n, the Stable disease ([2]; All (n = 21; 19 evaluable)) was 6 n and the “Progression free survival (PFS), median (95% CI)” value ([2]; all evaluable patients) was 1.9 (95% CI, 1.7 to 2.0) months and 1.9 months. The “Duration of response, median (range)” value ([2]; printed as for all 19 patients) was 7.1 (6.9 to 7.3) months, the Time to response ([2]; the two responding patients, individual values) was 1.8 months and 1.84 months and the “ALT, increased, adverse event, any grade” value (25 mg BID, n = 3) was 2 n. The “Anemia, adverse event, any grade” value (25 mg BID, n = 3) was 1 n, the “Creatinine, increased, adverse event, any grade” value (“Creatinine, increased” below) (25 mg BID, n = 3) was 1 n and the “Fecal occult blood, adverse event, any grade” value (“Fecal occult blood … any grade” for short) (25 mg BID, n = 3) was 1 n. The “Hematuresis, adverse event, any grade” value (25 mg BID, n = 3) was 1 n, the “Leukopenia, adverse event, any grade” value (25 mg BID, n = 3) was 1 n and the “Thrombocytopenia, adverse event, any grade” value (“Thrombocytopenia … any grade” below) (25 mg BID, n = 3) was 1 n. The “ALT, increased, adverse event, any grade” value (37.5 mg BID, n = 9) was 5 n, the “AST, increased, adverse event, any grade” value (37.5 mg BID, n = 9) was 1 n and the “Anemia, adverse event, any grade” value (37.5 mg BID, n = 9) was 4 n. For the same compound, the “Anemia, adverse event, grade ≥3” value (37.5 mg BID, n = 9) was 1 n, the “Constipation, adverse event, any grade” value (37.5 mg BID, n = 9) was 1 n and the “Fecal occult blood … any grade” value (37.5 mg BID, n = 9) was 2 n. For the same compound, the “Hematuresis, adverse event, any grade” value (37.5 mg BID, n = 9) was 1 n, the “Leukopenia, adverse event, any grade” value (37.5 mg BID, n = 9) was 1 n and the “Nausea, adverse event, any grade” value (37.5 mg BID, n = 9) was 1 n. For the same compound, the “Neutropenia, adverse event, any grade” value (37.5 mg BID, n = 9) was 2 n, the “Proteinuria, adverse event, any grade” value (37.5 mg BID, n = 9) was 1 n and the “Pyrexia, adverse event, any grade” value (37.5 mg BID, n = 9) was 2 n. For the same compound, the “S-T-segment change, adverse event, any grade” value (“S-T-segment change” for short) (37.5 mg BID, n = 9) was 1 n, the “Thrombocytopenia … any grade” value (37.5 mg BID, n = 9) was 2 n and the “Thrombocytopenia, adverse event, grade ≥3” value (shortened to “Thrombocytopenia … grade ≥3”) (37.5 mg BID, n = 9) was 1 n. The “URI, adverse event, any grade” value (37.5 mg BID, n = 9) was 2 n, the “Patients with dose-limiting toxicity (grade 3 transaminases elevation)” value (50 mg BID group) was “Four” and the “ALT, increased, adverse event, any grade” value (50 mg BID, n = 9) was 7 n. The “ALT, increased, adverse event, grade ≥3” value (50 mg BID, n = 9) was 4 n, the “AST, increased, adverse event, any grade” value (50 mg BID, n = 9) was 6 n and the “AST, increased, adverse event, grade ≥3” value (50 mg BID, n = 9) was 1 n. For the same compound, the “Anemia, adverse event, any grade” value (50 mg BID, n = 9) was 2 n, the “Arrhythmia, adverse event, any grade” value (50 mg BID, n = 9) was 1 n and the “Constipation, adverse event, any grade” value (50 mg BID, n = 9) was 1 n. The “Creatinine, increased” value (50 mg BID, n = 9) was 1 n, the “Diarrhea, adverse event, any grade” value (50 mg BID, n = 9) was 2 n and the “Fecal occult blood … any grade” value (50 mg BID, n = 9) was 1 n. For the same compound, the “Hematuresis, adverse event, any grade” value (50 mg BID, n = 9) was 1 n, the “Leukopenia, adverse event, any grade” value (50 mg BID, n = 9) was 2 n and the “Nausea, adverse event, any grade” value (50 mg BID, n = 9) was 1 n. For the same compound, the “Neutropenia, adverse event, any grade” value (50 mg BID, n = 9) was 3 n, the “Neutropenia, adverse event, grade ≥3” value (50 mg BID, n = 9) was 2 n and the “Peripheral nerve toxicity, adverse event, any grade” value (50 mg BID, n = 9) was 1 n. The “Pyrexia, adverse event, any grade” value (50 mg BID, n = 9) was 2 n, the “Rash, adverse event, any grade” value (50 mg BID, n = 9) was 2 n and the “S-T-segment change” value (50 mg BID, n = 9) was 1 n. The “Thrombocytopenia … any grade” value (50 mg BID, n = 9) was 1 n, the “Thrombocytopenia … grade ≥3” value (50 mg BID, n = 9) was 1 n and the “URI, adverse event, any grade” value (50 mg BID, n = 9) was 2 n. The DLT events (25-mg or 37.5-mg doses) was “No DLT events”, the “ALT, increased, adverse event, any grade” value (Overall) was 14 n and the “ALT, increased, adverse event, grade ≥3” value (Overall) was 4 n. The “AST, increased, adverse event, any grade” value (Overall) was 7 n, the “AST, increased, adverse event, grade ≥3” value (Overall) was 1 n and the “Anemia, adverse event, any grade” value (Overall) was 7 n. The “Arrhythmia, adverse event, any grade” value (Overall) was 1 n, the “Constipation, adverse event, any grade” value (Overall) was 2 n and the “Creatinine, increased” value (Overall) was 2 n. For the same compound, the “Diarrhea, adverse event, any grade” value (Overall) was 2 n, the “Fecal occult blood … any grade” value (Overall) was 4 n and the “Hematuresis, adverse event, any grade” value (Overall) was 3 n. For the same compound, the “Leukopenia, adverse event, any grade” value (Overall) was 4 n, the “Nausea, adverse event, any grade” value (Overall) was 2 n and the “Neutropenia, adverse event, any grade” value (Overall) was 5 n. For the same compound, the “Neutropenia, adverse event, grade ≥3” value (Overall) was 2 n, the “Peripheral nerve toxicity, adverse event, any grade” value (Overall) was 1 n and the “Proteinuria, adverse event, any grade” value (Overall) was 1 n. The “Pyrexia, adverse event, any grade” value (Overall) was 4 n, the “Rash, adverse event, any grade” value (Overall) was 2 n and the “S-T-segment change” value (Overall) was 2 n. The “Thrombocytopenia … any grade” value (Overall) was 4 n, the “Thrombocytopenia … grade ≥3” value (Overall) was 2 n and the “URI, adverse event, any grade” value (Overall) was 4 n. For the same compound, the “Anemia, frequency of AE” value (all 21 patients) was 33.3%, the “Creatinine elevation, frequency of AE” value (all 21 patients) was 9.5% and the “Elevated alanine transaminase (ALT), frequency of AE” value (all 21 patients) was 66.7%. For the same compound, the “Elevated aspartate transaminase (AST), frequency of AE” value (all 21 patients) was 33.3%, the “Fecal occult blood, frequency of AE” value (all 21 patients) was 19.0% and the “Hematuresis, frequency of AE” value (all 21 patients) was 14.3%. The “Myocardial ischemia, frequency of AE” value (all 21 patients) was 9.5%, the “Neutropenia, frequency of AE” value (all 21 patients) was 23.8% and the “Rash, frequency of AE” value (all 21 patients) was 9.5%. For the same compound, the “Thrombocytopenia, frequency of AE” value (all 21 patients) was 19.0%, the “Upper respiratory infection (URI), frequency of AE” value (all 21 patients) was 19.0% and the Drug-related hyperglycemia (all patients) was “no XC302-related hyperglycemia”. The “Maximum tolerated dose (MTD)” value (twice a day, 28-day cycle, NHL patients) was 50 mg, the IC50 [3] was 767 nM and the IC50 [4] was 100 nM. For the same compound, the IC50 [5] was 89.7 nM, the IC50 [6] was 2.8 nM and the Disease control rate ([7]; advanced solid tumors) was 52.5%. For the same compound, the Oral bioavailability ([7]; clinical PK monitoring) was “good oral bioavailability”, the “Maximum tolerated dose (MTD)” value ([7]; continuous daily schedule) was 75 mg and the “Maximum tolerated dose (MTD)” value ([7]; twice daily (BID)) was 50 mg. For the same compound, the IC50 [8] was 100 nM, the Absolute bioavailability [9] was “high absolute bioavailability” and the Absorption [9] was “rapidly absorbed”. The Toxicity [10] was “low toxicity”.

Source: publication PMC4791286, “Puquitinib mesylate, an inhibitor of phosphatidylinositol 3-kinase p110δ, for treating relapsed or refractory non-Hodgkin's lymphoma” (Oncotarget, 2015)
